We go through six compounds from patent publication US20240199702A1, “CELL-PERMEABLE CYCLIC PEPTIDES AND USES THEREOF” (Unnatural Products Inc., priority 2021, published 2024).

Each structure is given as a SMILES string. Where a SMILES comes first, the peptide text is derived from it. [ ]: non-standard residue; d: D form. ξ: configuration not given here. Ala(thiazol-5-yl) = N[C@@H](Cc1cncs1)C(=O)O; Ala(4-thiazolyl) = N[C@@H](Cc1cscn1)C(=O)O; NMePhe(4-F) = CN[C@@H](Cc1ccc(F)cc1)C(=O)O; Phe(4-Cl) = N[C@@H](Cc1ccc(Cl)cc1)C(=O)O; Phe(4-F) = N[C@@H](Cc1ccc(F)cc1)C(=O)O; NMeF = CN[C@@H](Cc1ccccc1)C(=O)O; NMeNva = CCC[C@H](NC)C(=O)O; NMeV = CN[C@H](C(=O)O)C(C)C; hSer = N[C@@H](CCO)C(=O)O; NMeA = CN[C@@H](C)C(=O)O; dNMeA = CN[C@H](C)C(=O)O; ξNMeV = CNC(C(=O)O)C(C)C; Aze = O=C(O)[C@@H]1CCN1; NBuGly = CCCCNCC(=O)O; Nme = COCCNCC(=O)O; NEtG = CCNCC(=O)O; Sar = CNCC(=O)O

One assay has as its system MOLM-13 cells. Briefly: Cellular Fluorescence Assay 1 (CellTiter-Glo, 72 hours). The class given is cell-based. The protocol:
Cellular Fluorescence Assay 1
(§1) MOLM-13 cells were grown in suspension in T75 flasks in RPMI medium with 10% fetal bovine serum (FBS) at 37° C. with 5% CO2. 40 μL ofMOLM-13 cells were plated into columns 1-22 of white, flat bottom, 384 well plates at a density of 1,000 cells per well in RPMI with 10% FBS. Columns 23 and 24 were filled with 40 μL of media as a positive control. 100 nL of compounds dissolved in DMSO were pin transferred into columns 3-22 of the 384 well plate. Columns 1 and 2 served as negative control wells. Plates were incubated for 72 hours at 37° C. with 5% CO2. After incubation, the cells were given 10 μL of CellTiter-Glo® (Promega®). Luminescence was read on a Molecular Devices SpectraMax i3x plate reader.
(Cellular ATP, detected with luciferase, serves as a proxy for viable cell number.)

A further assay has as its target T1, Human MDM2 (HDM2) 1-116 (Homo sapiens, UniProt Q00987).
T1 construct: Human MDM2 (HDM2) 1-116
In words: Fluorescence Polarization Assay 1 (MDM2/p53 peptide). The class given is binding. The note with it: FAM-labeled p53 peptide, 60 minutes. The protocol:
Fluorescence Polarization Assay 1
(§2) Human MDM2 (HDM2) 1-116 (20 μL) and FAM-labeled GGTSFAEYWNLLSP-NH2, 10 nM and 5 nM respectively in 10 mM Tris, 50 mM NaCl, 0.01% Tween20, and 1 mM DTT at pH 7.4 were dispensed into an opaque, black, 384 well plate. Compounds dissolved in DMSO were pin transferred (˜100-200 nL) to the 384 well plate containing the MDM2/p53 solution. After incubation for 60 minutes, the fluorescence polarization was read on a Molecular Devices SpectraMax plate reader equipped with a Fluorescein FP cartridge. In addition to probe alone (positive control) and probe/MDM2 (negative control), a titration of linear p53(18-26) was included on every plate as an additional control. IC50 values were fit using either Prism or Collaborative Drug Discovery.

Another assay has as its system MKL-1 cells. Briefly: Cellular Fluorescence Assay 4 (CellTiter-Glo, 72 hours). The class given is cell-based. As to the method: Cellular Fluorescence Assay 4
as §1, with “MKL-1” for “MOLM-13”, “MKL-1” for “ofMOLM-13”, “reader. In some embodiments, the cyclic peptide described herein is a cyclic peptide depicted in Table 1: […]” for “reader.”

A further assay concerns the target T2, Human MDM4 (HDM4) 1-114 (Homo sapiens, UniProt O15151).
T2 construct: Human MDM4 (HDM4) 1-114
T2 sequence (O15151 1-114): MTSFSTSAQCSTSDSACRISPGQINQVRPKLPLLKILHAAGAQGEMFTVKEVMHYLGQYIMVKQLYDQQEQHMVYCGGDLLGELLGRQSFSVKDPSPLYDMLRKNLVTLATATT
Briefly: Fluorescence Polarization Assay 2 (MDM4/p53 peptide). The assay is classed as binding. To be noted: FAM-labeled p53 peptide, 60 minutes. The protocol:
Fluorescence Polarization Assay 2
as §2, with “MDM4 (HDM4) 1-114” for “MDM2 (HDM2) 1-116”, “GGTSFAEYWNLLSP —NH2, 20” for “GGTSFAEYWNLLSP-NH2, 10”, “(−100-200” for “(˜100-200”, “MDM4/p53” for “MDM2/p53”, “probe/MDM4” for “probe/MDM2”
In general terms: Fluorescence polarisation rises when a labelled molecule tumbles more slowly, as on binding a larger partner.

In the next assay the test system is MV4-11 cells. In words: Cellular Fluorescence Assay 2 (CellTiter-Glo, 72 hours). The class given is cell-based. As to the method: Cellular Fluorescence Assay 2
as §1, with “MV4-11” for “MOLM-13”, “of MV4-11” for “ofMOLM-13”

The next assay relates to WaGa cells. Briefly: Cellular Fluorescence Assay 3 (CellTiter-Glo, 72 hours). The assay is classed as cell-based. The protocol:
Cellular Fluorescence Assay 3
as §1, with “WaGa” for “MOLM-13”, “of WaGa” for “ofMOLM-13”

T1 sequence (Q00987 1-116): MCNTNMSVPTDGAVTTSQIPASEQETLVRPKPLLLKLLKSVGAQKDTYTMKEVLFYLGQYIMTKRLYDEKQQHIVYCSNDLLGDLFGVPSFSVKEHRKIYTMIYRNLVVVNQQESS

Turning to `CCCCN1CC(=O)N[C@@H](Cc2ccc(F)cc2)C(=O)N(C)C(C(C)C)C(=O)N[C@@H](Cc2ccc(Cl)cc2)C(=O)N(C)[C@@H](Cc2ccccc2)C(=O)N2CCC[C@@H]2C(=O)N[C@@H](CCOC)C(=O)N(C)[C@@H](C)C(=O)N[C@@H](Cc2cncs2)C(=O)N(C)[C@H](C)C1=O` (stereo partly drawn) [compound 24] (cyclo([NMeA][Ala(thiazol-5-yl)][dNMeA][NBuGly][Phe(4-F)][ξNMeV][Phe(4-Cl)][NMeF][dP][hSer](Me))), the 50% inhibitory concentration (IC50) in the assay with MOLM-13 cells is at least 150 nM; on Human MDM2 (HDM2) 1-116, 25 to 50 nM; in the assay with MKL-1 cells, at least 2000 nM; at Human MDM4 (HDM4) 1-114, at least 100 nM; with MV4-11 cells, at least 150 nM; in the assay on WaGa cells, at least 150 nM.
Regarding `COCC[C@@H]1NC(=O)[C@H]2CCCN2C(=O)[C@H](Cc2ccccc2)N(C)C(=O)[C@H](Cc2ccc(Cl)cc2)NC(=O)[C@H](C(C)C)N(C)C(=O)[C@H](Cc2ccc(F)cc2)NC(=O)[C@H](C)N(C)C(=O)[C@@H](C)N(C)C(=O)[C@H](Cc2cncs2)NC(=O)[C@H](C)N(C)C1=O` [compound 26] (cyclo([NMeA][Phe(4-F)][NMeV][Phe(4-Cl)][NMeF][dP][hSer](Me)[NMeA][Ala(thiazol-5-yl)][dNMeA])), the concentration for half-maximal inhibition (IC50) in the assay on MOLM-13 cells was 100 to 150 nM; against Human MDM2 (HDM2) 1-116, below 25 nM; in the assay with MKL-1 cells, 500 to 1000 nM; against Human MDM4 (HDM4) 1-114, 50 to 100 nM; in the assay on MV4-11 cells, 50 to 100 nM; in the assay on WaGa cells, 100 to 150 nM.
As to `COCC[C@@H]1NC(=O)[C@H]2CCCN2C(=O)[C@H](Cc2ccc(F)cc2)N(C)C(=O)[C@H](Cc2ccc(Cl)cc2)NC(=O)[C@@H]2CCN2C(=O)[C@H](Cc2ccc(F)cc2)NC(=O)CN(CCOC)C(=O)[C@@H](C)N(C)C(=O)[C@H](Cc2cscn2)NC(=O)[C@H](C(C)C)N(C)C1=O` [compound 22] (cyclo([Ala(4-thiazolyl)][dNMeA][Nme][Phe(4-F)][Aze][Phe(4-Cl)][NMePhe(4-F)][dP][hSer](Me)[NMeV])), the IC50 with MOLM-13 cells is at least 150 nM; at Human MDM2 (HDM2) 1-116 it was 25 to 50 nM; with MKL-1 cells, below 500 nM; against Human MDM4 (HDM4) 1-114 it was 25 to 50 nM; in the assay on MV4-11 cells it was 50 to 100 nM; with WaGa cells, 50 to 100 nM.
Turning to `CCC[C@H]1C(=O)N[C@@H](Cc2ccc(F)cc2)C(=O)N(C)[C@@H](C(C)C)C(=O)N[C@@H](Cc2ccc(Cl)cc2)C(=O)N(C)[C@@H](Cc2ccccc2)C(=O)N2CCC[C@@H]2C(=O)N[C@@H](CCOC)C(=O)N(C)[C@@H](C)C(=O)N[C@@H](Cc2cncs2)C(=O)N(C)[C@H](C)C(=O)N1C` [compound 28] (cyclo([NMeA][Ala(thiazol-5-yl)][dNMeA][NMeNva][Phe(4-F)][NMeV][Phe(4-Cl)][NMeF][dP][hSer](Me))), the IC50 in the assay with MOLM-13 cells was at least 150 nM; on Human MDM2 (HDM2) 1-116, below 25 nM; with MKL-1 cells, 1000 to 2000 nM; against Human MDM4 (HDM4) 1-114 it was at least 100 nM; in the assay with MV4-11 cells, 100 to 150 nM; in the assay on WaGa cells, at least 150 nM.
As to `CCN1CC(=O)N[C@@H](Cc2ccc(F)cc2)C(=O)N(C)[C@@H](C(C)C)C(=O)N[C@@H](Cc2ccc(Cl)cc2)C(=O)N(C)[C@@H](Cc2ccccc2)C(=O)N2CCC[C@@H]2C(=O)N[C@@H](CCOC)C(=O)N(C)[C@@H](C)C(=O)N[C@@H](Cc2cncs2)C(=O)N(C)[C@H](C)C1=O` [compound 25] (cyclo([NEtG][Phe(4-F)][NMeV][Phe(4-Cl)][NMeF][dP][hSer](Me)[NMeA][Ala(thiazol-5-yl)][dNMeA])), the IC50 in the assay on MOLM-13 cells is at least 150 nM; at Human MDM2 (HDM2) 1-116, below 25 nM; in the assay on MKL-1 cells it was 500 to 1000 nM; on Human MDM4 (HDM4) 1-114, at least 100 nM; in the assay with MV4-11 cells, 100 to 150 nM; with WaGa cells, at least 150 nM.
As to `COCC[C@@H]1NC(=O)[C@H]2CCCN2C(=O)[C@H](Cc2ccccc2)N(C)C(=O)[C@H](Cc2ccc(Cl)cc2)NC(=O)[C@H](C(C)C)N(C)C(=O)[C@H](Cc2ccc(F)cc2)NC(=O)CN(C)C(=O)[C@@H](C)N(C)C(=O)[C@H](Cc2cncs2)NC(=O)[C@H](C)N(C)C1=O` [compound 27] (cyclo([NMeA][Ala(thiazol-5-yl)][dNMeA][Sar][Phe(4-F)][NMeV][Phe(4-Cl)][NMeF][dP][hSer](Me))), the IC50 was at least 150 nM in the assay on MOLM-13 cells; below 25 nM on Human MDM2 (HDM2) 1-116; 500 to 1000 nM in the assay on MKL-1 cells; at least 100 nM at Human MDM4 (HDM4) 1-114; 100 to 150 nM in the assay on MV4-11 cells; 100 to 150 nM in the assay with WaGa cells.

In general, IC50 refers to the concentration that gives 50% inhibition. A lower IC50 goes with inhibition by little substance.
